In patent US5916904A, “Antimicrobial agent” (Eisai Co., Ltd., priority 1992, dated 1999) one finds MIC and antibiotic activity data, which are given here for one compound.

Converted amounts (≈) assume the structure as drawn.

One test has as its system C. pylori NCTC11637. Description: MIC by agar dilution method, C. pylori standard strain NCTC11637. The conditions noted are these: Helicobacter pylori, 72 h, in vitro, 37° C., pH 7.0, 3 days, microaerophilic, read-out: antibiotic activity (MIC). The class given is cell-based. For orientation: In agar dilution the substance is mixed into plates at graded concentrations.
For the next test, the system named is C. pylori NCTC11916. Nature of the test: MIC by agar dilution method, C. pylori standard strain NCTC11916. The class given is cell-based. To be noted: Helicobacter pylori, 72 h, in vitro, 37° C., pH 7.0, 3 days, microaerophilic, read-out: antibiotic activity (MIC).
The next test deals with C. pylori EI-2. Description: MIC by agar dilution method, C. pylori clinical isolate EI-2. Format: cell-based. The conditions noted are these: Helicobacter pylori, EI2, 72 h; EI-2, clinical isolate; in vitro, 37° C., pH 7.0, 3 days, microaerophilic; read-out: antibiotic activity (MIC).
For another test, the system named is C. pylori EI-5. Description: MIC by agar dilution method, C. pylori clinical isolate EI-5. The class given is cell-based. The conditions noted are these: Helicobacter pylori, EI5, 72 h; EI-5, clinical isolate; in vitro, 37° C., pH 7.0, 3 days, microaerophilic; read-out: antibiotic activity (MIC).
Another test has as its system C. pylori EI-36. Description: MIC by agar dilution method, C. pylori clinical isolate EI-36. Format: cell-based. The conditions noted are these: Helicobacter pylori, EI36, 72 h; EI-36, clinical isolate; in vitro, 37° C., pH 7.0, 3 days, microaerophilic; read-out: antibiotic activity (MIC).
A further test concerns C. pylori EI-46. Description: MIC by agar dilution method, C. pylori clinical isolate EI-46. The class given is cell-based. The conditions noted are these: Helicobacter pylori, EI46, 72 h; EI-46, clinical isolate (resistant); in vitro, 37° C., pH 7.0, 3 days, microaerophilic; read-out: antibiotic activity (MIC).
Another test deals with C. pylori EI-391. Nature of the test: MIC by agar dilution method, C. pylori clinical isolate EI-391. Format: cell-based. To be noted: Helicobacter pylori, EI391, 72 h; EI-391, clinical isolate (resistant); in vitro, 37° C., pH 7.0, 3 days, microaerophilic; read-out: antibiotic activity (MIC).
The test system of another test is C. pylori EI-393. Nature of the test: MIC by agar dilution method, C. pylori clinical isolate EI-393. Format: cell-based. To be noted: Helicobacter pylori, EI393, 72 h; EI-393, clinical isolate; in vitro, 37° C., pH 7.0, 3 days, microaerophilic; read-out: antibiotic activity (MIC).
A further test has as its system C. pylori EI-397. Nature of the test: MIC by agar dilution method, C. pylori clinical isolate EI-397. To be noted: Helicobacter pylori, EI397, 72 h; EI-397, clinical isolate; in vitro, 37° C., pH 7.0, 3 days, microaerophilic; read-out: antibiotic activity (MIC). Format: cell-based.
In the next test the test system is C. pylori EI-429. Description: MIC by agar dilution method, C. pylori clinical isolate EI-429. To be noted: Helicobacter pylori, EI429, 72 h; EI-429, clinical isolate; in vitro, 37° C., pH 7.0, 3 days, microaerophilic; read-out: antibiotic activity (MIC). The class given is cell-based.
The test system of another test is C. pylori EI-467. Nature of the test: MIC by agar dilution method, C. pylori clinical isolate EI-467. The class given is cell-based. To be noted: Helicobacter pylori, EI467, 72 h; EI-467, clinical isolate; in vitro, 37° C., pH 7.0, 3 days, microaerophilic; read-out: antibiotic activity (MIC).
The subject of a further test is C. pylori EI-612. Description: MIC by agar dilution method, C. pylori clinical isolate EI-612. The class given is cell-based. The conditions noted are these: Helicobacter pylori, EI612, 72 h; EI-612, clinical isolate; in vitro, 37° C., pH 7.0, 3 days, microaerophilic; read-out: antibiotic activity (MIC).
In another test the test system is C. pylori EI-925. Description: MIC by agar dilution method, C. pylori clinical isolate EI-925. Format: cell-based. The conditions noted are these: Helicobacter pylori, EI925, 72 h; EI-925, clinical isolate; in vitro, 37° C., pH 7.0, 3 days, microaerophilic; read-out: antibiotic activity (MIC).
The test system of the next test is C. pylori EI-930. Description: MIC by agar dilution method, C. pylori clinical isolate EI-930. Format: cell-based. To be noted: Helicobacter pylori, EI930, 72 h; EI-930, clinical isolate; in vitro, 37° C., pH 7.0, 3 days, microaerophilic; read-out: antibiotic activity (MIC).
The next test relates to C. pylori EI-933. Description: MIC by agar dilution method, C. pylori clinical isolate EI-933. Format: cell-based. The conditions noted are these: Helicobacter pylori, EI933, 72 h; EI-933, clinical isolate; in vitro, 37° C., pH 7.0, 3 days, microaerophilic; read-out: antibiotic activity (MIC).
A further test concerns C. pylori 8005. The conditions noted are these: C. pylori 8005, clinical isolate; JP-A 2-209809; cited from earlier work.
In a further test the test system is C. pylori. The conditions noted are these: JP-A 2-209809 and JP-A 3-173817; cited from earlier work.

With `COc1ccc2[nH]c([S+]([O-])Cc3ncc(C)c(OC)c3C)nc2c1` (centres unmarked) [(III), 5-Methoxy-2-[{(4-methoxy-3,5-dimethyl-2-pyridinyl)methyl}sulfinyl]-1H-benzimidazole], the MIC with C. pylori NCTC11637 turned out to be 50 µg/mL (≈ 145 µM); with C. pylori NCTC11916, 25 µg/mL (≈ 72.4 µM); with C. pylori EI-2 it was 25 µg/mL (≈ 72.4 µM); in the test on C. pylori EI-5 it was 50 µg/mL (≈ 145 µM); in the test with C. pylori EI-36 it was 25 µg/mL (≈ 72.4 µM); with C. pylori EI-46, 25 µg/mL (≈ 72.4 µM). Besides, the MIC amounted to 50 µg/mL (≈ 145 µM) with C. pylori EI-391; 50 µg/mL (≈ 145 µM) in the test on C. pylori EI-393; 50 µg/mL (≈ 145 µM) in the test on C. pylori EI-397; 25 µg/mL (≈ 72.4 µM) in the test with C. pylori EI-429; 50 µg/mL (≈ 145 µM) with C. pylori EI-467; 25 µg/mL (≈ 72.4 µM) in the test with C. pylori EI-612. Also, the minimum inhibitory concentration (MIC) in the test on C. pylori EI-925, with C. pylori EI-930 and with C. pylori EI-933 was 25 µg/mL (≈ 72.4 µM) each time. Also, the antibiotic activity entry in the test with C. pylori 8005 is listed as “has antibiotic activity against C. pylori 8005”; in the test with C. pylori, “lacks sufficient antibiotic activity”.

A word on the MIC: it is the least concentration at which growth counts as inhibited.
